Patent US7211584B2, “5-HT7 receptor ligands” (Laboratorios del Dr. Esteve, S.A., priority 2004, dated 2007)
Where a name gives a salt, the structure may show the parent alone.

Biological target: T1, Human Serotonin Receptor, Subtype 7 (h5HT7) (Homo sapiens, UniProt P34969)
T1 construct: purchased PerkinElmer 6120512; host or cells: CHO cells (membranes)
Test: Radioligand binding, cloned human serotonin receptor subtype 7 (h5HT7) expressed in CHO cells, [125I]LSD
Settings: h5HT7 in CHO cells on Flashplate; [125I]LSD 0.82 nM; room temperature 240 minutes; triplicate; read-out: 5-HT7 IC-50
Description: Radioligand binding assays were performed using the Cloned Human Serotonin Receptor, Subtype 7 (h5HT7), expressed in CHO cells, coated on Flashplate (Basic FlashPlate Cat.: SMP200) from PerkinElmer (Cat.: 6120512). The protocol assay was essentially the recommended protocol in the Technical Data Sheet by PerkinEmer Life and Analytical Sciences. The Mass membrane protein/well was typically 12 μg and the Receptor/well was about 9–10 fmoles. The Flashplate were let equilibrate at room temperature for one hour before the addition of the components of the assay mixture. The binding buffer was: 50 mM Tris-HCl, pH 7.4, containing 10 mM MgCl2, 0.5 mM EDTA and 0.5% BSA. The radioligand was [^125I]LSD at a final concentration of 0.82 nM. Nonspecific binding was determined with 50 μM of Clozapine. The assay volume was 25 μl. TopSeal-A were applied onto Flashplate microplates and they were incubated at room temperature for 240 minutes in darkness. The radioactivity were quantified by liquid scintillation spectrophotometry (Wallac 1450 Microbeta Trilux) with a count delay of 4 minutes prior to counting and a counting time of 30 seconds per well. Competition binding data were analyzed by using the LIGAND program (Munson and Rodbard, LIGAND: A versatile, computerized approach for characterization of ligand-binding systems. Anal. Biochem. 107: 220–239, 1980) and assays were performed in triplicate determinations for each point.

T1 sequence (P34969 whole entry): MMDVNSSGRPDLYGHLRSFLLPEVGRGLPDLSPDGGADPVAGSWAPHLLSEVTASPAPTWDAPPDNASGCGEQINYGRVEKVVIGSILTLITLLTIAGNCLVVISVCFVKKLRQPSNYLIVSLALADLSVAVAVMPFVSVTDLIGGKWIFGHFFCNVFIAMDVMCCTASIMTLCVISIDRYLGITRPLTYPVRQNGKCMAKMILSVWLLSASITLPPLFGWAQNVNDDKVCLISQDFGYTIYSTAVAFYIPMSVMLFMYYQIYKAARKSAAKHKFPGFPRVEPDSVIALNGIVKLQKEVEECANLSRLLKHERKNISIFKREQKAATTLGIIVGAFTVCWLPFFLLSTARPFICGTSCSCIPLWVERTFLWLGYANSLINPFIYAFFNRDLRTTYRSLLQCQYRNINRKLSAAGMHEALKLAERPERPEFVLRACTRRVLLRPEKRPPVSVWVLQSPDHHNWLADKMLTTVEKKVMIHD

| Structure (SMILES) | IC50 [nM] |
| --- | --- |
| O=S(=O)(NCCCN1CCc2ccccc2C1)c1cccc2ccccc12 [Compound 33, Naphthalene-1-sulfonic acid[3-(3,4-dihydro-1H-isoquinolin-2-yl)-propyl]-amide hydrochloride] | 384 |
| COc1cc2c(cc1OC)CN(CCCNS(=O)(=O)c1cc(Cl)c(F)cc1F)CC2 [Compound 48, 5-Chloro-N-[3-(6,7-dimethoxy-3,4-dihydro-1H-isoquinolin-2-yl)-propyl]-2,4-difluoro-benzenesulfonamide] | 64.8 |
| COc1cc2c(cc1OC)CN(CCCNS(=O)(=O)c1cc(Cl)ccc1Cl)CC2 [Compound 43, 2,5-Dichloro-N-[3-(6,7-dimethoxy-3,4-dihydro-1H-isoquinolin-2-yl)-propyl]-benzenesulfonamidehydrochloride] | 89.5 |

Results, then the compound that gave them:

| IC50 [nM] | Structure (SMILES) |
| --- | --- |
| 112 | COc1cc(C)c(S(=O)(=O)NCCCN2CCc3ccccc3C2)c(C)c1C [Compound 40, N-[3-(3,4-Dihydro-1H-isoquinolin-2-yl)-propyl]-4-methoxy-2,3,6-trimethyl-benzenesulfonamidehydrochloride] |
| 136 | O=S(=O)(NCCCN1CCc2ccccc2C1)c1ccccc1 [Compound 35, N-[3-(3,4-Dihydro-1H-isoquinolin-2-yl)-propyl]-benzenesulfonamidehydrochloride] |
